# Experimental data as given in US9334268B2, “4-amino-imidazoquinoline compounds” (Hoffmann-La Roche Inc., priority 2014, dated 2016).
# Where a name gives a salt, the structure may show the parent alone.
# Legend:
# human TLR7 = human TLR7 (Homo sapiens (Human), UniProt Q9NYK1); assay: HEK-Blue human TLR7 SEAP reporter assay; type: cell-based; details: for EC50: HEK-Blue human TLR7 cells, NF-κB-regulated SEAP reporter, stimulation for 24 hr
# Description: (§1) For TLR8 and TLR7 activity testing, HEK-Blue human TLR8 or TLR7 cells, respectively, (Invivogen, San Diego, Calif., USA) transfected with a SEAP reporter (secreted embryonic alkaline phosphatase) construct were used, in which the reporter expression is regulated by the NF-κB promoter upon stimulation for 24 hr. The reporter activity was determined using Quanti Blue kit (Invivogen, San Diego, Calif., USA) at a wavelength of 640 nm.
# (§2) EC50 values were determined using Activity Base analysis (ID Business Solution, Limited).
# human TLR8 = human TLR8 (Homo sapiens (Human), UniProt Q9NR97); assay: HEK-Blue human TLR8 SEAP reporter assay; type: cell-based; details: HEK-Blue human TLR8 cells, NF-κB-regulated SEAP reporter, stimulation for 24 hr
# Description: as §1, §2
# Chain of human TLR8 (Q9NR97 27-1041): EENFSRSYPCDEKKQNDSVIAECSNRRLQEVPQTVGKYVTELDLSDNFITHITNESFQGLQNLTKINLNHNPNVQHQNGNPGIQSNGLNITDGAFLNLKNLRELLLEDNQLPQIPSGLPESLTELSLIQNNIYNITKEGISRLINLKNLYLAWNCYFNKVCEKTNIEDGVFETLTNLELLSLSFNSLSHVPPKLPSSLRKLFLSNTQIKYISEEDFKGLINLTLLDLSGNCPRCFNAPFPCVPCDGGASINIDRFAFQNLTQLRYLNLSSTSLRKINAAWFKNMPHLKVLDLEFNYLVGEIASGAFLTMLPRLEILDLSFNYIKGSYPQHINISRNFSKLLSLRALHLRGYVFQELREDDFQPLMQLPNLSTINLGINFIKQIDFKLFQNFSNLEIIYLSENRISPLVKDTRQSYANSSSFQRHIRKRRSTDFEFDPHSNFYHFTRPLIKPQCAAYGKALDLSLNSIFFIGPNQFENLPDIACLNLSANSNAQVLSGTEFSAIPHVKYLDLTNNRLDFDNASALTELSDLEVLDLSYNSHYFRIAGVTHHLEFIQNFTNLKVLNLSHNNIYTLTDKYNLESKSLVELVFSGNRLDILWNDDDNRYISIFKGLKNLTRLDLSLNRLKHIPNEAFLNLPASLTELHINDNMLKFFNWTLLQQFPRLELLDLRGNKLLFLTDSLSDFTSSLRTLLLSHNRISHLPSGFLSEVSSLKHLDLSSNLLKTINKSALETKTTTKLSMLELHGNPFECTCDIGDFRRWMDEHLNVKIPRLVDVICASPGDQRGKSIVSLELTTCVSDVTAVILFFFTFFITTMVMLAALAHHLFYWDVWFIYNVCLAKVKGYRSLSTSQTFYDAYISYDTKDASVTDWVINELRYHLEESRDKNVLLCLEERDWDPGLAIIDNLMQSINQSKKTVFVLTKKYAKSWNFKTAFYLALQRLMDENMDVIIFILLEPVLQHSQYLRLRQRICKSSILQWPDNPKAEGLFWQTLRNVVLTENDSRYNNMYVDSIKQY
# Chain of human TLR7 (Q9NYK1 27-1049): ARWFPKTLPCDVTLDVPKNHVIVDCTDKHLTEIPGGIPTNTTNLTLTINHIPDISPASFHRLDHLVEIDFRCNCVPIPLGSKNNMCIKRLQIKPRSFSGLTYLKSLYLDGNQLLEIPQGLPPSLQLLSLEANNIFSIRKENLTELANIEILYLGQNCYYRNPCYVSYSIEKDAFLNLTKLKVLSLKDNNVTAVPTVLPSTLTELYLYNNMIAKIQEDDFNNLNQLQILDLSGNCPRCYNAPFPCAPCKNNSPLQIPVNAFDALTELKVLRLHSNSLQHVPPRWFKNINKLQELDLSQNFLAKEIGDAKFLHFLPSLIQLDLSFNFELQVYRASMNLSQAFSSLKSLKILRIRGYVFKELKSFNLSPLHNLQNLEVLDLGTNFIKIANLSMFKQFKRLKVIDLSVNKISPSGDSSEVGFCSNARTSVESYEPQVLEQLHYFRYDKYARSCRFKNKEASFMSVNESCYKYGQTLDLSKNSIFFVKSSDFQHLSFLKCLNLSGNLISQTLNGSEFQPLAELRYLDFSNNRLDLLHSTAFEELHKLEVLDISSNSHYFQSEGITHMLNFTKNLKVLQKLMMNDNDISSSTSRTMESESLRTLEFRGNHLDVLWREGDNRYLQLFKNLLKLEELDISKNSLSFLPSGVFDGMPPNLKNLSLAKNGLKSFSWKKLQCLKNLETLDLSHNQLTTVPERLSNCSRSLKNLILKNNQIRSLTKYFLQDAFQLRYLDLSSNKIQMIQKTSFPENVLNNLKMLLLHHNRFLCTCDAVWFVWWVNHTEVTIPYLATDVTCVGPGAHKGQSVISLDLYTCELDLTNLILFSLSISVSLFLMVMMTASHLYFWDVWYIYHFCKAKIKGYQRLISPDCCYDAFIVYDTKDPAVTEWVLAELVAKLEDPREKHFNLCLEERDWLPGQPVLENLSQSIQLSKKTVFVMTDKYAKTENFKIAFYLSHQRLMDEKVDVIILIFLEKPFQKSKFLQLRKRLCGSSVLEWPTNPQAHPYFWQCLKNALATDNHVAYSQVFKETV
EC50 (human TLR7),EC50 (human TLR8),"cellular potency at TLR7 (human TLR7; statement in words, compared with resiquimod)",Structure (SMILES)
195 nM,2900 nM,–,"CCOCc1nc2c(N)nc3ccccc3c2n1CC(C)(C)OCCNC(=O)CCCCCNC(=O)OC(C)(C)C [Example 6, tert-Butyl 6-(2-(1-(4-amino-2-(ethoxymethyl)-1H-imidazo[4,5-c]quinolin-1-yl)-2-methylpropan-2-yloxy)ethylamino)-6-oxohexylcarbamate]"
50 nM,80 nM,–,"CCOCc1nc2c(N)nc3ccccc3c2n1CC(C)(C)OC(=O)CN [Example 2, 1-(4-Amino-2-(ethoxymethyl)-1H-imidazo[4,5-c]quinolin-1-yl)-2-methylpropan-2-yl 2-aminoacetate]"
139 nM,1080 nM,–,"CCOCc1nc2c(N)nc3cc(/C=C/C(=O)OCC)ccc3c2n1CC(C)(C)OCCN [Example 7, (E)-Ethyl 3-(4-amino-1-(2-(2-aminoethoxy)-2-methylpropyl)-2-(ethoxymethyl)-1H-imidazo[4,5-c]quinolin-7-yl)acrylate]"
27 nM,–,–,"CCOCc1nc2c(N)nc3ccccc3c2n1CC(C)(C)OCCNC(C)=O [Example 4, N-(2-(1-(4-Amino-2-(ethoxymethyl)-1H-imidazo[4,5-c]quinolin-1-yl)-2-methylpropan-2-yloxy)ethyl)acetamide]"
223 nM,35000 nM,–,"CCOCc1nc2c(N)nc3ccccc3c2n1CC(C)(C)OCCNC(=O)c1cccnc1 [Example 3, N-(2-(1-(4-Amino-2-(ethoxymethyl)-1H-imidazo[4,5-c]quinolin-1-yl)-2-methylpropan-2-yloxy)ethyl)nicotinamide]"
152 nM,2700 nM,–,"CCCCCc1nc2c(N)nc3ccccc3c2n1CC(C)(C)OCCN [Example 10, 1-(2-(2-Aminoethoxy)-2-methylpropyl)-2-pentyl-1H-imidazo[4,5-c]quinolin-4-amine]"
60 nM,580 nM,–,"CCOCc1nc2c(N)nc3ccccc3c2n1CC(C)(C)OCCN [Example 1, 1-(2-(2-Aminoethoxy)-2-methylpropyl)-2-(ethoxymethyl)-1H-imidazo[4,5-c]quinolin-4-amine]"
900 nM,10500 nM,–,"CCOCc1nc2c(N)nc3ccccc3c2n1CC(C)(C)OCCNCCCO [Example 5, 3-(2-(1-(4-Amino-2-(ethoxymethyl)-1H-imidazo[4,5-c]quinolin-1-yl)-2-methylpropan-2-yloxy)ethylamino)propan-1-ol]"
134 nM,256 nM,–,"CCOCc1nc2c(N)nc3cc(CCC(=O)OCC)ccc3c2n1CC(C)(C)OCCN [Example 8, Ethyl 3-(4-amino-1-(2-(2-aminoethoxy)-2-methylpropyl)-2-(ethoxymethyl)-1H-imidazo[4,5-c]quinolin-7-yl)propanoate hydrochloride]"
> 100000 nM,49000 nM,do not show the required activity,"CCOCc1nc2c(N)nc3ccccc3c2n1CCOCCN [1-(2-(2-Aminoethoxy)ethyl)-2-(ethoxymethyl)-1H-imidazo[4,5-c]quinolin-4-amine, reference compound]"
130 nM,2900 nM,–,"CCOCc1nc2c(N)nc3cc(Br)ccc3c2n1CC(C)(C)OCCN [Example 11, 1-(2-(2-Aminoethoxy)-2-methylpropyl)-7-bromo-2-(ethoxymethyl)-1H-imidazo[4,5-c]quinolin-4-amine hydrochloride]"

Structure (SMILES),EC50 (human TLR7),EC50 (human TLR8),"cellular potency at TLR7 (human TLR7; statement in words, compared with resiquimod)"
"CCOCc1nc2c(N)nc3cc(CCC(=O)OCC)ccc3c2n1CC(C)(C)OC(=O)CN [Example 9, Ethyl 3-(4-amino-1-(2-(2-aminoacetoxy)-2-methylpropyl)-2-(ethoxymethyl)-1H-imidazo[4,5-c]quinolin-7-yl)propanoate]",55 nM,54 nM,–
